Source: patent US20250367163A1, “PHARMACEUTICAL COMPOSITION FOR PREVENTING OR TREATING DEGENERATIVE EYE DISEASES” (GLACEUM, INC., priority 2021, published 2025)

Key:
[1] = system: lesion in the eyeball, Alu-RNA dry-AMD model; assay: Fundus photography of eyeball lesion in Alu-RNA animal model (dry-AMD); format: in vivo, mouse; conditions: oral, from 6 days before and for 7 days after induction of dry-AMD (1.2 μg Alu-RNA subretinal)
Description: (§1) Male C57BL/6 mice were anesthetized, and a lesion was induced by making a hole in the corneal limbus of the mouse eye and injecting 1.2 μg of Alu-RNA into the subretinal space by a Hamilton syringe. Each of Compound 1-2 and Compound 1-18 was administered orally starting from 6 days before induction of the dry-AMD model, and was administered orally for 7 days after induction of the disease. To evaluate the dry-AMD preventive and therapeutic effects of each of Compound 1-2 and Compound 1-18, the morphology of the lesion was evaluated by fundus photography using TOPCON #TRC-50DX.

[2] = system: inflammation-related mRNA in RPE cells; assay: Inflammatory factor mRNA (real-time PCR) in RPE cells from Alu-RNA animal model (dry-AMD); format: in vivo, mouse; conditions: oral, from 6 days before and for 7 days after induction of dry-AMD
Description: as §1
RPE cells were isolated from the same model as in Experimental Example 9, and the relative expression level of inflammation-related mRNA was analyzed using real-time PCR. […] 100 pmol of oligo Dt17 primer was added to 1 μg of total RNA which was then incubated at 74° C. for 10 minutes, and then 30 U of RNAsin (RNase inhibitor), 10 U of AMV-RT (avian myeloblastosis virus-reverse transcriptase), and AMV-RT buffer (Promega, Israel) were added thereto and reacted at 42° C. for 2 hours and at 52° C. for 1 hour, thereby synthesizing cDNA from the RNA extracted from the […]. cDNA was amplified using the SYBR Premix Ex Taq kit (Takara Bio, Inc.) and the StepOnePlus Real-time PCR system (Applied Biosystems), and then mRNA expression was measured.

[3] = system: mitochondrial reactive oxygen species in RPE cells; assay: Mitochondrial reactive oxygen species (MitoSOX) in RPE cells from Alu-RNA animal model (dry-AMD); format: in vivo, mouse; conditions: oral, from 6 days before and for 7 days after induction of dry-AMD
Excerpt: (§2) RPE cells were isolated from the same model as in Experimental […] changes in mitochondrial reactive oxygen species in the RPE cells were examined through fluorescence microscopy. Specifically, immediately after enucleation of the mouse eye, mitochondria and nuclei were stained using the MitoSOX™ (Invitrogen, #M36008) kit and imaged with a fluorescence microscope at a fluorescence wavelength of 510/580 nm, and changes in reactive oxygen species in the mitochondria were measured.
as §1
RPE cells were isolated from the same model as in Experimental Example 9 and stained with MitoSOX, and changes in mitochondrial reactive oxygen species in the RPE cells were examined through fluorescence microscopy. Measurement was performed in the same manner as in Experimental Example 2.

[4] = system: retinal lesion (wet-AMD) induced by laser photocoagulation; assay: Lesion volume in laser-induced CNV wet-AMD mouse model (FITC-dextran, Z-stack 3D imaging); format: in vivo; conditions: for efficacy on lesion compared with positive control anti-VEGF agent (FIG. 1) / lesion formation / lesion volume (FIG. 1): oral, from 6 days before and for 7 days after inducing wet-AMD; for efficacy on lesion compared with positive control anti-VEGF agent (FIG. 1): Eylea injected into the eye as positive control; for lesion formation / lesion volume (FIG. 1): male C57BL/6 mice
Description: Male C57BL/6 mice were anesthetized with zoletil and rompun, and a retinal lesion (wet-AMD) was induced by performing three laser photocoagulations at the 2 o'clock, 6 o'clock, and 10 o'clock positions at on the retina of the mouse eye under a slit-lamp microscope. Each of Compound 1-2 and Compound 1-18 was administered orally starting from 6 days before inducing wet-AMD, and was administered orally for 7 days after inducing the disease. Eylea (Bayer, Germany), used as a positive control, was administered by direct injection into the eye immediately after induction of the disease model.
After weighing each mouse, FITC-dextran (SIGMA, #46944) diluted in saline at a concentration of 5 mg/kg was injected into the tail veins of the mice to which each of Compound 1-2 and Compound 1-18 has been administered for 7 days after inducing the wet-AMD model. 3D images of the lesions were obtained using the Z-stack imaging technique, and the volumes of the lesions on the images were quantitatively measured.
(§3) Changes after administering Compound 1-2 for 7 days after induction of the disease without administration before induction of the disease to the wet-AMD mouse model induced in the same manner as in Experimental Example 1 were analyzed. In the same manner as Experimental Example 1, the image of the lesion was obtained and the volume of the lesion was quantified.
as §3, with “co-administering” for “administering”, “1-2 and the anti-VEGF agent (Eylea)” for “1-2”
as §3, with “1-2 at concentrations of 25, 50 and 100 mg/kg” for “1-2”, “administration of Compound 1-2” for “administration”

RPE cytoskeleton = assay: RPE cell structure (ZO-1 staining) in Alu-RNA animal model (dry-AMD); format: in vivo, mouse; conditions: oral, from 6 days before and for 7 days after induction of dry-AMD
Description: as §1
RPE cells were isolated from the same model as in Experimental Example 9 and stained for ZO-1, and changes in the structure of the RPE cells were examined under a fluorescence microscope (Olympus SZ51, Tokyo, Japan). Specifically, immediately after enucleation of the mouse eye, the RPE cytoskeleton was stained for zonula occludens-1 (ZO-1) and imaged with a fluorescence microscope through the Z-stack imaging technique, and changes in the RPE cytoskeleton were imaged.

[5] = system: mitochondrial reactive oxygen species in RPE cells; assay: Mitochondrial reactive oxygen species (MitoSOX) in RPE cells from wet-AMD (CNV) animal model; format: in vivo, mouse; conditions: for mitochondrial reactive oxygen species in RPE cells (FIG. 2) / efficacy on mitochondrial reactive oxygen species compared with positive control anti-VEGF agent (FIG. 2): oral, from 6 days before and for 7 days after inducing wet-AMD; for efficacy on mitochondrial reactive oxygen species compared with positive control anti-VEGF agent (FIG. 2): Eylea as positive control
Excerpt: as §2
RPE cells were isolated from the same model as in Experimental Example 3 and stained with MitoSOX, and changes in mitochondrial reactive oxygen species in the RPE cells were examined through fluorescence microscopy. Measurement was performed in the same manner as in Experimental Example 2.
RPE cells were isolated from the same model as in Experimental Example 5 and stained with MitoSOX, and changes in mitochondrial reactive oxygen species in the RPE cells were examined through fluorescence microscopy. Measurement was performed in the same manner as in Experimental Example 2.
RPE cells were isolated from the same model as in Experimental Example 7 and stained with MitoSOX, and changes in mitochondrial reactive oxygen species in the RPE cells were examined through fluorescence microscopy. Measurement was performed in the same manner as in Experimental Example 2.

[6] = 25, 50 and 100 mg/kg for 7 days after induction of the disease
[7] = administered for 7 days after induction of the disease, none before induction

Row | SMILES | lesion in the eyeball by fundus photography (FIG. 9) [1] | inflammatory factors in RPE cells, relative mRNA expression (FIG. 12) [2] | mitochondrial reactive oxygen species in RPE cells (FIG. 11) [3] | lesion volume depending on concentration (FIG. 7) [4, 6] | efficacy on lesion compared with positive control anti-VEGF agent (FIG. 3) [4, 7] | lesion formation / lesion volume (FIG. 3) [4, 7] | efficacy on lesion compared with positive control anti-VEGF agent (FIG. 1) [4] | lesion formation / lesion volume (FIG. 1) [4] | RPE cytoskeleton, ZO-1 staining (FIG. 10) (RPE cytoskeleton) | efficacy in reducing mitochondrial reactive oxygen species at 100 mg/kg (FIG. 8) ([5]; 100 mg/kg versus 25 and 50 mg/kg, 7 days after induction of the disease) | mitochondrial reactive oxygen species in RPE cells depending on concentration (FIG. 8) [5, 6] | efficacy on mitochondrial reactive oxygen species compared with positive control anti-VEGF agent (FIG. 4) [5, 7] | mitochondrial reactive oxygen species in RPE cells (FIG. 4) [5, 7] | mitochondrial reactive oxygen species in RPE cells (FIG. 2) [5] | efficacy on mitochondrial reactive oxygen species compared with positive control anti-VEGF agent (FIG. 2) [5]
1 | CCOc1ccc(C2COc3c(ccc4c3CCC(C)(C)O4)C2)c(O)c1 (stereo not shown) [Compound 1-2] | reduced the lesion in the eyeball | effectively reduced | reduced mitochondrial reactive oxygen species | reduced in a manner dependent on the concentration | efficacy equivalent to that of the positive control anti-VEGF agent | suppressed formation of the lesion | efficacy equivalent to that of the positive control anti-VEGF agent | inhibited lesion formation | restored the damaged RPE cytoskeleton | highest efficacy | reduced mitochondrial reactive oxygen species in a concentration-dependent manner | efficacy equivalent to that of the positive control anti-VEGF agent | reduced mitochondrial reactive oxygen species | reduced mitochondrial reactive oxygen species | efficacy equivalent to that of the positive control anti-VEGF agent
2 | CCCOc1ccc([C@@H]2COc3c(ccc4c3CCC(C)(C)O4)C2)c(O)c1 [Compound 1-18] | reduced the lesion in the eyeball |  | reduced mitochondrial reactive oxygen species |  |  |  | efficacy equivalent to that of the positive control anti-VEGF agent | inhibited lesion formation | restored the damaged RPE cytoskeleton |  |  |  |  | reduced mitochondrial reactive oxygen species | efficacy equivalent to that of the positive control anti-VEGF agent
